Broadly, the IC50 is the midpoint of a concentration-inhibition curve.

The target of one test is human Cav2.2 (Homo sapiens, UniProt Q00975). Description: Assessment of calcium channel activity using FLIPR (Ca2+ influx in IMR32 cells). It is filed as cell-based.
Sequence of human Cav2.2 (Q00975 whole entry): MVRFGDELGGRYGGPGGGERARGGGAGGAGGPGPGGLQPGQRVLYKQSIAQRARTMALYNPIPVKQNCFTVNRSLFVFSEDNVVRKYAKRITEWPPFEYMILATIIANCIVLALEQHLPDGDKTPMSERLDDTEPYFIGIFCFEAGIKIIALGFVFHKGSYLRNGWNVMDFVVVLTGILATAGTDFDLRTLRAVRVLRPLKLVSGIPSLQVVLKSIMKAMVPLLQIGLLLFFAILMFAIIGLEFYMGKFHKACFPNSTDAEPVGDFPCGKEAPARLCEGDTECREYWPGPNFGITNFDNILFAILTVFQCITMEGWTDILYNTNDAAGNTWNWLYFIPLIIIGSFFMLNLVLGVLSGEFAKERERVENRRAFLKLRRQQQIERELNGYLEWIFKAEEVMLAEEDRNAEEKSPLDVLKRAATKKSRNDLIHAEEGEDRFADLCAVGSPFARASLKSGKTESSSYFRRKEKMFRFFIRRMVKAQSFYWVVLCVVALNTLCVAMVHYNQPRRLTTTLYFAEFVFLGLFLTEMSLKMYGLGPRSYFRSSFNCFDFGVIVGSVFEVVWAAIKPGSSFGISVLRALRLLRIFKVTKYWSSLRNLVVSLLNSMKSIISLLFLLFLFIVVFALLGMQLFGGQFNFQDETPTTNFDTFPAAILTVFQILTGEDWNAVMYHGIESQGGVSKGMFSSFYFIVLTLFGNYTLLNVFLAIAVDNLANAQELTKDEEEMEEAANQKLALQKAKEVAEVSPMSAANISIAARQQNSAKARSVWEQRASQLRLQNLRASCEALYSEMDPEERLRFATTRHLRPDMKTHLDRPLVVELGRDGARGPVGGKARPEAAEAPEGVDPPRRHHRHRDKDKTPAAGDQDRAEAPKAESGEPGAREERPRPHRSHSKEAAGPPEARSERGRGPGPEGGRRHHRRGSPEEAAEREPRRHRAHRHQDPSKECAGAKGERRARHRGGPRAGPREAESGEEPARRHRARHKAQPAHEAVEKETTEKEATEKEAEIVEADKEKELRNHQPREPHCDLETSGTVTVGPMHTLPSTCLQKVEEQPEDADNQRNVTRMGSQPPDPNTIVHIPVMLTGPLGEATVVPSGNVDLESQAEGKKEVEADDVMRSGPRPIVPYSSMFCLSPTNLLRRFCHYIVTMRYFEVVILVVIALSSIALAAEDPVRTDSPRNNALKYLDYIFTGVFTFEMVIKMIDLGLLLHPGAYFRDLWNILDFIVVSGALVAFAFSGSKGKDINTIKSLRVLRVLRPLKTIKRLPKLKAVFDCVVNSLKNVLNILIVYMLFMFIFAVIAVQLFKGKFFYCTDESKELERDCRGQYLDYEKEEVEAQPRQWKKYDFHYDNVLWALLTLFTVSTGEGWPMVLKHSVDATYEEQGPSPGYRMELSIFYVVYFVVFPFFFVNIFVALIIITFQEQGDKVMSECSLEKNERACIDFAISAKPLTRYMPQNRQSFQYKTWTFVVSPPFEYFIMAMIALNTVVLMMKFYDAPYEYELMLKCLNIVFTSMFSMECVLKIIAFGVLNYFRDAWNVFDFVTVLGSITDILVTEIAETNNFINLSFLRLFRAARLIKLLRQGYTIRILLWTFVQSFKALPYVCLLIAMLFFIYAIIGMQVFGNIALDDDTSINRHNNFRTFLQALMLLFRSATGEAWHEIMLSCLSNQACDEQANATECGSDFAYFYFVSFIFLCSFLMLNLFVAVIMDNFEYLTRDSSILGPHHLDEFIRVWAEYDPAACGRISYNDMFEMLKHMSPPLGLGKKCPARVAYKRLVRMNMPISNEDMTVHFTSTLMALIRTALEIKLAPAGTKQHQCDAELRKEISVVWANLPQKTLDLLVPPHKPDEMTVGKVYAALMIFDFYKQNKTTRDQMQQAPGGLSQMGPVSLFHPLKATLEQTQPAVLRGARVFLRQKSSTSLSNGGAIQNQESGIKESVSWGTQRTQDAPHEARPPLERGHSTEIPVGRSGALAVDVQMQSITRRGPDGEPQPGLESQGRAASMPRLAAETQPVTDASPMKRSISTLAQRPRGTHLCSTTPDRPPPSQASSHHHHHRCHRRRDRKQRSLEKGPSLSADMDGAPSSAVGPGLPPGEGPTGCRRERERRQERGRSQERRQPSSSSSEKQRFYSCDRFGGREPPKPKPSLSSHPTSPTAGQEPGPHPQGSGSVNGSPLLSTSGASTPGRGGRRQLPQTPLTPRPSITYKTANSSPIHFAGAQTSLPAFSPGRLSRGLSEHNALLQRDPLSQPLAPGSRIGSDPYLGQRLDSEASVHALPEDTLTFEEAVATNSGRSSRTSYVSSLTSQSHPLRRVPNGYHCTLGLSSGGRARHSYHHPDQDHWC
Sequence of human Cav2.2 (P54289 25-956 partner limits assumed): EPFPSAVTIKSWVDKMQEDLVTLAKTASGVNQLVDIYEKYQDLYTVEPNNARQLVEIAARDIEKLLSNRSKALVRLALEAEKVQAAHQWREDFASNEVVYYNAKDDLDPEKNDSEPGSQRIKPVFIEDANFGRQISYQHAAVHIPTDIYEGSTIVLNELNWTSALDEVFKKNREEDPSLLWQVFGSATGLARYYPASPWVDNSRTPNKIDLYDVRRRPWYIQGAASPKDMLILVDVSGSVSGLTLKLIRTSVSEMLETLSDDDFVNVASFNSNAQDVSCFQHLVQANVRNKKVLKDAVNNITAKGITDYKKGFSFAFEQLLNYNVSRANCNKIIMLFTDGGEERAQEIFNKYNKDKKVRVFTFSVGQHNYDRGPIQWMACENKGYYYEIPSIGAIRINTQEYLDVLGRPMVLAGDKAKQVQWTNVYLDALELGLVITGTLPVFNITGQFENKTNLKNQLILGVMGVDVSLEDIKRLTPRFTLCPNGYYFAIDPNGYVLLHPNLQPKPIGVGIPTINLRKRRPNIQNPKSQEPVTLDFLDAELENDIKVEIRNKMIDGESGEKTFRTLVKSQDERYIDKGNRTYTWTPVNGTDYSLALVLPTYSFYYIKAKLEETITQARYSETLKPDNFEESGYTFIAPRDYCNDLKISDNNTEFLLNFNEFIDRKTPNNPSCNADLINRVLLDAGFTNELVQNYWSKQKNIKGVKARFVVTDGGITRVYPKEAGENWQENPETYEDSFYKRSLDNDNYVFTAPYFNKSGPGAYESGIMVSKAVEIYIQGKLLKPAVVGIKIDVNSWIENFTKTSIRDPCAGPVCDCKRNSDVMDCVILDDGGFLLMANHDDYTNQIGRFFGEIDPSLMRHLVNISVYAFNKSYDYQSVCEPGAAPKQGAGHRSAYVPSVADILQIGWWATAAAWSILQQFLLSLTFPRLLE
Sequence of human Cav2.2 (P54289 957-1103 partner limits assumed): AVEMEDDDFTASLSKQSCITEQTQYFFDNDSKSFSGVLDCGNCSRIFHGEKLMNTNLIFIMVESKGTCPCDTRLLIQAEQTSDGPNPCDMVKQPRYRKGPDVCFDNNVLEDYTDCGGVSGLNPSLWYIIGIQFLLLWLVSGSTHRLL
Sequence of human Cav2.2 (P54284 whole entry partner): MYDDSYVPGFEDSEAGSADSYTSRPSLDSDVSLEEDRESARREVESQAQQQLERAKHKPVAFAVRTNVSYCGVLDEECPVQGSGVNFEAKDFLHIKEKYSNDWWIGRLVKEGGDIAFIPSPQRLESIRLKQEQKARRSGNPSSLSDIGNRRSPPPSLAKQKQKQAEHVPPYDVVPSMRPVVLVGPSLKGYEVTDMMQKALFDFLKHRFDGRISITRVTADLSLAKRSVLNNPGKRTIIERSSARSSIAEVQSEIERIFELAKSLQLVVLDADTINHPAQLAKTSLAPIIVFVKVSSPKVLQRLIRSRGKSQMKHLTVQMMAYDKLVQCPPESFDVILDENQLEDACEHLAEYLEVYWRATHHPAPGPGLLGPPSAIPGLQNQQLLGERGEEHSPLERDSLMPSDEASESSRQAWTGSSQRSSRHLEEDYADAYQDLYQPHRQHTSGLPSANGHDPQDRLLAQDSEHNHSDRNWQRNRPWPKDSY
Details: not given
Summed up:
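IC50 values derive from nonlinear sigmoidal fitting of percent inhibition, relative to inhibitor-free activity, of Ca2+ influx read by FLIPR. Cells were IMR32 human neuroblastoma, plated at 1−1.2×10^5 per well and grown 48 h at 37 °C.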
As to `N[C@H]1CC[C@@H]2CN(c3cccc(C(F)(F)F)c3)C[C@@H]21` [Example 605, (3aR,4S,6aS)-2-[3-(trifluoromethyl)phenyl]octahydrocyclopenta[c]pyrrol-4-amine], the half-inhibitory concentration (IC50) was 4.33 µM. Consider `C[C@H](C(=O)N[C@H]1CC[C@H]2CN(Cc3ccccc3)C[C@H]21)c1cccc(C(=O)c2ccccc2)c1` (relative stereo) [Example 12, (2S)-2-(3-benzoylphenyl)-N-[(3aS*,4S*,6aR*)-2-benzyloctahydrocyclopenta[c]pyrrol-4-yl]propanamide], for which the IC50 came out at 1.22 µM.

Turning to `Cc1cccc2c(CN[C@H]3CC[C@@H]4CN(c5cccc(C(F)(F)F)n5)C[C@@H]43)c[nH]c12` [Example 671, (3aR,4S,6aS)-N-[(7-methyl-1H-indol-3-yl)methyl]-2-[6-(trifluoromethyl)pyridin-2-yl]octahydrocyclopenta[c]pyrrol-4-amine], the IC50 amounted to 1.53 µM.

As for `FC(F)(F)c1cccc(N2C[C@H]3CC[C@H](NCc4cc5ccccc5[nH]4)[C@H]3C2)n1` [Example 612, (3aR,4S,6aS)-N-(1H-indol-2-ylmethyl)-2-[6-(trifluoromethyl)pyridin-2-yl]octahydrocyclopenta[c]pyrrol-4-amine], the concentration for half-maximal inhibition (IC50) was determined as 2.24 µM. The same measure, in the same setting: next, `CCCC(CCC)C(=O)N[C@H]1CC[C@H]2CN(Cc3cccc(C(F)(F)F)c3)C[C@H]21` (relative stereo) [Example 126, 2-propyl-N-{(3aS*,4S*,6aR*)-2-[3-(trifluoromethyl)benzyl]octahydrocyclopenta[c]pyrrol-4-yl}pentanamide]: 0.95 µM.

`O=C(N[C@H]1CC[C@@H]2CN(c3cccc(C(F)(F)F)n3)C[C@@H]21)[C@H](O)C(F)(F)F` [Example 585, (2S)-3,3,3-trifluoro-2-hydroxy-N-{(3aR,4S,6aS)-2-[6-(trifluoromethyl)pyridin-2-yl]octahydrocyclopenta[c]pyrrol-4-yl}propanamide]: the IC50 is 1.52 µM. Take `CCC[C@H](N)C(=O)N[C@@H]1CC[C@H]2CN(S(=O)(=O)c3ccc(C(F)(F)F)cc3)C[C@H]21` [Example 423, N^1-((3aS,4R,6aR)-2-{[4-(trifluoromethyl)phenyl]sulfonyl}octahydrocyclopenta[c]pyrrol-4-yl)-L-norvalinamide]: the IC50 came out at 6.46 µM. The same measure, in the same setting: next, `O=C(N[C@H]1CC[C@@H]2CN(c3ccc(OC(F)(F)F)cc3)C[C@@H]21)[C@@H]1C[C@@H](F)CN1` [Example 631, (4R)-4-fluoro-N-{(3aR,4S,6aS)-2-[4-(trifluoromethoxy)phenyl]octahydrocyclopenta[c]pyrrol-4-yl}-L-prolinamide]: > 30 µM; `CN[C@H](C(=O)N[C@H]1CC[C@@H]2CN(S(=O)(=O)c3cccc(C(F)(F)F)c3)C[C@@H]21)C(C)C` [Example 389, N^2-methyl-N^1-((3aR,4S,6aS)-2-{[3-(trifluoromethyl)phenyl]sulfonyl}octahydrocyclopenta[c]pyrrol-4-yl)-L-valinamide]: 1.48 µM; `O=C(N[C@H]1CC[C@H]2CN(Cc3cccc(C(F)(F)F)c3)C[C@H]21)C(c1ccc(F)cc1)c1ccc(F)cc1` (relative stereo) [Example 136, 2,2-bis(4-fluorophenyl)-N-{(3aS*,4S*,6aR*)-2-[3-(trifluoromethyl)benzyl]octahydrocyclopenta[c]pyrrol-4-yl}acetamide]: 0.64 µM.

As for `CN[C@@H](CC(C)C)C(=O)N[C@H]1CC[C@@H]2CN(c3cccc(Cl)c3)C[C@@H]21` [Example 628, N-[(3aR,4S,6aS)-2-(3-chlorophenyl)octahydrocyclopenta[c]pyrrol-4-yl]-N^2-methyl-L-leucinamide], the IC50 was determined as 3.53 µM. `O=S(=O)(Cc1ccc(Cl)cc1)N[C@H]1CC[C@@H]2CN(c3cccc(C(F)(F)F)n3)C[C@@H]21` [Example 717, 1-(4-chlorophenyl)-N-{(3aR,4S,6aS)-2-[6-(trifluoromethyl)pyridin-2-yl]octahydrocyclopenta[c]pyrrol-4-yl}methanesulfonamide]: the IC50 was 3.54 µM. On the same count and under the same terms, next, `CCCC[C@H](NC)C(=O)N[C@H]1CC[C@@H]2CN(Cc3ccccc3)C[C@@H]21` [Example 362, N^1-[(3aR,4S,6aS)-2-benzyloctahydrocyclopenta[c]pyrrol-4-yl]-N^2-methyl-L-norleucinamide]: > 30 µM. For `O=S(=O)(N[C@H]1CC[C@@H]2CN(c3cccc(C(F)(F)F)n3)C[C@@H]21)c1cccc(F)c1` [Example 702, 3-fluoro-N-{(3aR,4S,6aS)-2-[6-(trifluoromethyl)pyridin-2-yl]octahydrocyclopenta[c]pyrrol-4-yl}benzenesulfonamide], the IC50 stood at 2.55 µM. Still for that read-out and setting: next, `O=C(CC(O)C(F)(F)F)N[C@H]1CC[C@@H]2CN(c3cccc(C(F)(F)F)n3)C[C@@H]21` (stereo partly drawn) [Example 586, 4,4,4-trifluoro-3-hydroxy-N-{(3aR,4S,6aS)-2-[6-(trifluoromethyl)pyridin-2-yl]octahydrocyclopenta[c]pyrrol-4-yl}butanamide]: 2.56 µM; `CN[C@@H](CC(C)C)C(=O)N[C@H]1CC[C@@H]2CN(c3ccccc3C)C[C@@H]21` [Example 630, N^2-methyl-N-[(3aR,4S,6aS)-2-(2-methylphenyl)octahydrocyclopenta[c]pyrrol-4-yl]-L-leucinamide]: 3.34 µM; `FC(F)(F)c1cccc(N2C[C@H]3CC[C@H](NCc4c[nH]nc4-c4ccc(Cl)cc4)[C@H]3C2)n1` [Example 666, (3aR,4S,6aS)-N-{[3-(4-chlorophenyl)-1H-pyrazol-4-yl]methyl}-2-[6-(trifluoromethyl)pyridin-2-yl]octahydrocyclopenta[c]pyrrol-4-amine]: 1.37 µM.

The test is the same for the next values; noted with them: IC50 (μM) or percent inhibition (* indicates 3 minute incubation, otherwise 60 minute), IC50; 3 minute pre-incubation (*); IMR32 cells, 80 mM KCl depolarization.
As for `O=C(N[C@@H]1CC[C@H]2CN(Cc3ccccc3)C[C@H]21)C(c1ccccc1)C1CCCCC1` (relative stereo) [Example 4, N-[(3aS*,4R*,6aR*)-2-benzyloctahydrocyclopenta[c]pyrrol-4-yl]-2-cyclohexyl-2-phenylacetamide], the IC50 was found to be 3.5 µM.

Still in this test, the particulars now being: read-out: IC50 (μM) or percent inhibition (* indicates 3 minute incubation, otherwise 60 minute); IC50; 60 minute pre-incubation with compound; IMR32 cells, 80 mM KCl depolarization.
Take `CC(C)C[C@H](NS(=O)(=O)C1CC1)C(=O)N[C@@H]1CC[C@H]2CN(Cc3cccc(C(F)(F)F)c3)C[C@H]21` [Example 172, N^2-(cyclopropylsulfonyl)-N^1-{(3aS,4R,6aR)-2-[3-(trifluoromethyl)benzyl]octahydrocyclopenta[c]pyrrol-4-yl}-L-leucinamide]: the IC50 turned out to be 2.03 µM.

As for `O=S(=O)(c1cccc(C(F)(F)F)c1)N(C1CC1)[C@H]1CC[C@H]2CN(CCC(c3ccc(F)cc3)c3ccc(F)cc3)C[C@H]21` (relative stereo) [Example 203, N-{(3aS*,4S*,6aR*)-2-[3,3-bis(4-fluorophenyl)propyl]octahydrocyclopenta[c]pyrrol-4-yl}-N-cyclopropyl-3-(trifluoromethyl)benzenesulfonamide], the IC50 amounted to 1.54 µM. The same measure, in the same setting: next, `O=C(CCCC(c1ccc(F)cc1)c1ccc(F)cc1)N[C@H]1CC[C@H]2CN(Cc3cccc(C(F)(F)F)c3)C[C@H]21` (relative stereo) [Example 132, 5,5-bis(4-fluorophenyl)-N-{(3aS*,4S*,6aR*)-2-[3-(trifluoromethyl)benzyl]octahydrocyclopenta[c]pyrrol-4-yl}pentanamide]: 1.13 µM. On the same count and under the same terms, next, `CC(C)C(C(=O)N[C@H]1CC[C@@H]2CN(CCCc3cc(F)cc(Cl)c3)C[C@@H]21)c1ccccc1` (stereo partly drawn) [Example 114, N-{(3aR,4S,6aS)-2-[3-(3-chloro-5-fluorophenyl)propyl]octahydrocyclopenta[c]pyrrol-4-yl}-3-methyl-2-phenylbutanamide]: 2.81 µM; `O=C(N[C@@H]1CC[C@H]2CN(CCC(c3ccccc3)c3ccccc3)C[C@H]21)C(C1CCCCC1)C1CCCCC1` [Example 79, 2,2-dicyclohexyl-N-[(3aS,4R,6aR)-2-(3,3-diphenylpropyl)octahydrocyclopenta[c]pyrrol-4-yl]acetamide]: 0.94 µM; `CC(C)C[C@@H](C(=O)N[C@@H]1CC[C@H]2CN(Cc3cccc(C(F)(F)F)c3)C[C@H]21)N(C)S(C)(=O)=O` [Example 169, N^2-methyl-N^2-(methylsulfonyl)-N^1-{(3aS,4R,6aR)-2-[3-(trifluoromethyl)benzyl]octahydrocyclopenta[c]pyrrol-4-yl}-L-leucinamide]: 0.92 µM.

As to `O=C(N[C@@H]1CC[C@H]2CN(Cc3cccc(C(F)(F)F)c3)C[C@H]21)C(O)(C1CCCCC1)C1CCCCC1` [Example 154, 2,2-dicyclohexyl-2-hydroxy-N-{(3aS,4R,6aR)-2-[3-(trifluoromethyl)benzyl]octahydrocyclopenta[c]pyrrol-4-yl}acetamide], the half-inhibitory concentration (IC50) came out at 1.33 µM. Still for that read-out and setting: next, `CN[C@@H](CC(C)C)C(=O)N[C@@H]1CC[C@H]2CN(S(=O)(=O)c3ccccc3)C[C@H]21` [Example 448, N^2-methyl-N^1-[(3aS,4R,6aR)-2-(phenylsulfonyl)octahydrocyclopenta[c]pyrrol-4-yl]-L-leucinamide]: 12.4 µM.

Consider `O=C(N[C@H]1CC[C@H]2CN(Cc3ccccc3)C[C@H]21)C(C1CCCCC1)C1CCCCC1` [Example 15, N-[(3aS,4S,6aR)-2-benzyloctahydrocyclopenta[c]pyrrol-4-yl]-2,2-dicyclohexylacetamide], for which the IC50 is 16.5 µM. On to `CCC[C@H](NC)C(=O)N[C@H]1CC[C@@H]2CN(S(=O)(=O)Cc3ccc(C(F)(F)F)cc3)C[C@@H]21` [Example 549, N^2-methyl-N^1-((3aR,4S,6aS)-2-{[4-(trifluoromethyl)benzyl]sulfonyl}octahydrocyclopenta[c]pyrrol-4-yl)-L-norvalinamide], for which the IC50 is 2.73 µM. Still for that read-out and setting: next, `CCC[C@H](NC)C(=O)N[C@@H]1CC[C@H]2CN(S(=O)(=O)c3ccc(F)cc3)C[C@H]21` [Example 403, N^1-{(3aS,4R,6aR)-2-[(4-fluorophenyl)sulfonyl]octahydrocyclopenta[c]pyrrol-4-yl}-N^2-methyl-L-norvalinamide]: 8.65 µM.

Values taken from US8691865B2 (AbbVie Inc., priority 2008, dated 2014).
